Measurements reported in patent US20250092383A1, “COMPOUNDS AND METHODS FOR FBXO22-MEDIATED PROTEIN DEGRADATION” (Northwestern University, priority 2023, published 2025).

Assays:
[1] = biological target: T1, FKBP12 (Homo sapiens, UniProt P62942); assay: Global proteomic analysis in HEK293T cells expressing FBXO22 wildtype or C227AC228A; assay type: cell-based; set-up: expressed in transfected cells; host or cells: HEK293T; settings: 0.5 μM, 24 hours
Source text: (§1) FIGS. 3A-3H show FBXO22 C227 and C228 are involved in 22-SLF-mediated degradation of FKBP12. […] Among 5,650 quantified IA-DTB-modified peptides, four cysteines were identified on FBXO22 (C83, C117, C228, and C365). […] Data are presented as the mean values (n=2 biological independent samples for DMSO treatment; n=3 biological independent samples for 22-SLF Treatment). […] The bag graph represents quantification of the FLAG-FKBP12/HSP90 protein content. Data are presented as mean values (n=2 biological independent samples). […] The bar graph represents quantification of the FLAG-FKBP12/HSP90 protein content. Data are presented as the mean values (n=2 biological independent samples).
FIGS. 9A-9B show FBXO22 C227 and C228 are involved in 22-SLF-mediated degradation of FKBP12.
Global proteomic analysis in FBXO22 wildtype- and C227AC228A-expressing HEK293T cells was conducted, comparing the effects of 22-SLF treatment on the expression level of FKBP12. […] Using this predicted human FBXO22 structure, a model structure of the interaction with the electrophilic portion of 22-SLF was conducted.

[2] = biological target: T1, FKBP12; assay: Western blot of FLAG-FKBP12 degradation in HEK293T cells expressing HA-FBXO22; assay type: cell-based; set-up: expressed in transfected cells; host or cells: HEK293T
Method: The bar graph represents quantification of the FLAG-FKBP12/HSP90 protein content. Data are presented as the mean values±s.e.m. […] HEK293T cells expressing HA-FBXO22 were treated with 0.025-15 μM 22-SLF for 8 h. The graph represents quantification of the FLAG-FKBP12/HSP90 protein content. Data are presented as the mean values (n=2 biological independent samples). […] The bar graph represents quantification of the FLAG-FKBP12/HSP90 protein content. KO, knockout; WT, wild type. Data are presented as the mean values (n=2 biological independent samples). […] The bar graph represents quantification of the FLAG-FKBP12/HSP90 protein content. Data are presented as the mean values±s.e.m. […] The result is representative of two independent experiments with similar results. WCL, whole-cell lysate; IP, immunoprecipitate.
as §1
FIG. 11A-11B show the acrylamide variant of 22-SLF, 22a-SLF, induced the degradation of FKBP12. […] HEK293T cells expressing HA-FBXO22 were treated with 0.5, 1, or 2 μM of 22-SLF or 22a-SLF for 8 hours. The graph represents quantification of the FLAG-FKBP12/HSP90 protein content. Data are presented as mean values (n=2 biological independent samples).
Next, Western blot analysis was used to measure the degradation of FKBP12 induced by 22-SLF. To achieve this, FLAG-tagged FKBP12 and HA-tagged FBXO22 were stably overexpressed in HEK293T cells, followed by subjecting the cells to varying concentrations of 22-SLF. […] Moreover, 22-SLF's effect on FLAG-FKBP12 degradation was concentration-dependent (FIG. 2a). […] The rescue enabled by MLN4924 indicates the involvement of a Cullin-RING ligase (CRL) in the degradation process. This is consistent with FBXO22 belonging to SKP1-CUL1-F-box protein (SCF) ubiquitin ligase complexes, a subfamily of CRL. […] To provide a more comprehensive insight into 22-SLF-induced FKBP12 degradation, a dose-dependent degradation experiment using 11 concentrations of 22-SLF ranging from […] to 15 μM was conducted. This experiment enabled determination of two parameters, the Dmax value, which reached 89%, and the half-maximal degradation concentration (DC50) value, which measured at 0.5 μM (FIG. 2B). […] Collectively, this array of data supports the canonical mechanism of ligand-induced protein degradation. In this mechanism, 22-SLF orchestrates the recruitment of FBXO22 to FKBP12, culminating in the proteasomal degradation of FKBP12.
To identify the cysteine residue(s) in FBXO22 engaged with 22-SLF, HA-FBXO22-expressing HEK293T cells were treated with either DMSO or 22-SLF (2 μM, 2 hours). Using competitive cysteine-directed activity-based protein profiling (ABPP), a chemical proteomics for the measurement of target engagement, the degree of blockade of iodoacetamide-desthiobiotin (IA-DTB)-modified cysteines on FBXO22 was quantified. From a pool of 5,650 quantified IA-DTB-modified peptides, four cysteines on FBXO22 (C83, C117, C228, and C365) (FIG. 3a) were identified, with approximately 20% of FBXO22 C228 being blocked by 22-SLF treatment (FIG. 3b), indicating the potential interaction with this cysteine by 22-SLF. Consequently, C228 was mutated to alanine and HA-FBXO22 C228A-expressing HEK293T cells were generated (FIG. 3c). […]

T1 sequence (P62942 whole entry): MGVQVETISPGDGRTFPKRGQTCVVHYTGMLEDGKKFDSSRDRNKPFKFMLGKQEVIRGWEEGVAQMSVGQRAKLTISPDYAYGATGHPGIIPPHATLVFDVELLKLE

CCC(C)(C)C(=O)C(=O)N1CCCC[C@H]1C(=O)O[C@H](CCc1ccc(OC)c(OC)c1)c1cccc(OCC(=O)NCCCOCCOCCOCCCN(C(=O)CCl)C(C(=O)NCc2ccccc2)c2nc3ccccc3s2)c1 (stereo partly drawn) [22-SLF]
FKBP12 degradation in global proteomics, FBXO22 C227AC228A cells ([1]; HEK293T HA-FBXO22 C227AC228A): no degradation observed
Proteins degraded among 7,936 quantified proteins, FBXO22 wildtype cells ([1]; HEK293T HA-FBXO22 wildtype): FKBP12 was the only protein degraded
DC50 ([2]; 11 concentrations, 0.25 to 15 μM, 8 h, HEK293T expressing HA-FBXO22, read-out: half-maximal degradation concentration (DC50)): 500 nM
Concentration dependence of FLAG-FKBP12 degradation ([2]; HEK293T cells expressing HA-FBXO22): concentration-dependent
FKBP12 degradation with FBXO22 double mutant C227AC228A ([2]; HEK293T cells expressing the variant): completely blocked
FKBP12 degradation with FBXO22 single mutants C227A and C228A ([2]; HEK293T cells expressing the variants): partially impeded
Loss of FLAG-FKBP12 expression in cells lacking HA-FBXO22 ([2]; HEK293T cells without HA-FBXO22): no reduction was observed
Dmax ([2]; HEK-293T, 11 concentrations, 0.25 to 15 μM, 8 h, HEK293T expressing HA-FBXO22): 89%
Time to nearly complete FLAG-FKBP12 degradation ([2]; time course): ≤ 2 h
